Source: US12005056B2, “Centrally-active ghrelin agonist and medical uses thereof” (Helsinn Healthcare SA, priority 2018, dated 2024)
Entries after “also recorded” stand apart in the source; their conditions may differ. Where two headings read alike, the source gives them in different places.

Legend:
[1] = molecular target: T1, human GHSR1 receptor (Homo sapiens, UniProt Q92847); assay: [125I]Ghrelin binding assay on membranes from BHK cells; details: 1 nM [125I]Ghrelin, BHK cell membranes
T1 construct: expressed in transfected cells; host or cells: BHK cells (membrane preparation)
T1 sequence (Q92847 whole entry): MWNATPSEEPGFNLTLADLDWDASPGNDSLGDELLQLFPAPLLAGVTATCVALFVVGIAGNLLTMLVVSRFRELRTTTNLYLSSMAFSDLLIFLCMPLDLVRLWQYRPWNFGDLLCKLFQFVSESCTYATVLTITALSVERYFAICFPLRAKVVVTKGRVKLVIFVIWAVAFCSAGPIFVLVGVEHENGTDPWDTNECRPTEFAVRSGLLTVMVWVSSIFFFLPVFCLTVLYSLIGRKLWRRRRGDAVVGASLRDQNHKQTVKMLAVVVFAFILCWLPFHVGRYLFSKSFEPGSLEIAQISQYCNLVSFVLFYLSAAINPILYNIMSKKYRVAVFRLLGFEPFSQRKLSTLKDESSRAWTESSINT
Experimental: In additional binding study, compound A was dissolved in DMSO and diluted with water in different range of concentrations. Membrane protein prepared from BHK cells stably expressing human GHSR1 receptor were used for binding assay. The membrane was diluted in assay buffer to yield 20 μg/well in 120 μl. The binding assay was set up in 96 well plate as following: 120 μl [^125I]Ghrelin (final concentration 1 nM) and 15 μl compound A (10×) diluted in the assay buffer. The reaction mixture was incubated at room temperature for 30 minutes before terminating by quick filtration onto GF/B filtration plate pre-soaked in 0.3% PEI using cell harvester (Perkin Elmer). The filter was washed three times and dried at 37° overnight. The radioactivity bound to filter membrane was measured with MicroBeta Trilux (Perkin Elmer).

[2] = mouse, in vivo
Experimental: Sixty female Balb/C mice weighing 20-25 g at start of experiment were used and divided into 4 groups of 15 mice each. […] Body weights were measured daily, immediately prior to the initiation of dosing.

[3] = test system: bortezomib-treated Wistar rats; assay: Bortezomib study, prevention paradigm; format: in vivo; details: for Allodynia / Body Weight / DRG/nerve pathology / IENFD / NCS: Bortezomib Preventive setting, 0.2 mg/kg (i.v.) 3 times/week for 8 weeks
[4] = test system: healthy male subjects; format: in vivo, human; details: for maximal decrease of mean heart rate (Holter-ECG): 1 to 3 hours after administration
Experimental: The study was performed as a single-center, randomized, double-blind, placebo-controlled, Phase 1 study with healthy male subjects receiving single ascending oral doses of Compound A. A dose-escalation design was considered to be appropriate to investigate the safety and tolerability of this new compound in the first single dose study in humans. Within each cohort six subjects were to receive a single oral dose of Compound A and two subjects were to receive placebo on Day 1.
Each subject received a single oral dose of either Compound A or placebo in a randomized fashion. Study drug administrations were performed in the morning of Day 1. The proper administration of the study medication was supervised by the Investigator or delegate. This included checking the oral and buccal cavity. The study medication or placebo was supplied as powder-containing gelatin capsules; they were administered orally together with 240 mL water. Subjects were dosed in a fasted state (no food was taken for at least 8 hours prior to dosing). Access to food was restricted until 4 hours after dosing.
12-lead ECGs were recorded on Day −1 and from pre-dose on Day 1 to 72 hours after drug administration. In addition, a Holter-ECG was recorded from about at least 12 hours prior to the planned dosing until 24 hours post-dose. Triplicate extracts (1 min interval) were taken at the same time-points when paper ECGs were taken. Vital signs (blood pressure, pulse rate, body temperature [auricular measurement]) were measured on Day −1 and then from pre-dose on Day 1 to 72 hours post-dose. 12-lead ECGs were recorded as scheduled in the study flow chart using the ECG system (Cardiosoft, Marquette Hellige). Triplicate ECGs were recorded at 36, 48 and 72 hours post-dose. The ECGs were recorded in supine position after at least 5 minutes rest or after at least 15 minutes rest at time points when ECG extracts from the Holter-ECG were done (to allow for a sufficient time period). ECGs were plotted with a paper speed of 50 mm/s and 10 mm/mV amplitude, with 10 seconds recording duration for all leads and at least 3 complexes, but preferably 5 complexes in each lead. The following ECG parameters were evaluated: heart rate, PR interval, QRS interval, QT interval, QTcB (using Bazett's correction formula) and QTcF (using Fridericia's correction formula).

[5] = rat, in vivo
[6] = dog, in vivo
[7] = test system: bortezomib-treated Wistar rats; assay: Bortezomib study, therapeutic paradigm; details: for Allodynia / Body Weight / DRG/nerve pathology / IENFD / NCS: Bortezomib Therapeutic setting, 0.2 mg/kg (i.v.) 3 times/week for 8 weeks
[8] = therapeutic setting, all doses, monohydrochloride salt

3-(1-(2,3-dichloro-4-methoxyphenyl) ethyl)-1-methyl-1-(1,3,3-trimethylpiperidin-4-yl)urea monohydrochloride salt [Compound A]
Ki [1]: 1.42 ± 0.35 nM
tissue penetration index (ratio of tissue/plasma) in DRG [2]: 18-19 fold
tissue penetration index (ratio of tissue/plasma) in SN [2]: 9-12 fold
Tissue penetration index (DRG/plasma ratio) ([2]; 10 mg/kg): 17.6
Tissue penetration index (SN/plasma ratio) ([2]; 10 mg/kg): 8.9
Tissue penetration index (DRG/plasma ratio) ([2]; 30 mg/kg): 18.9
Tissue penetration index (SN/plasma ratio) ([2]; 30 mg/kg): 12.0
AUC0-∞ in sciatic nerve and DRG relative to plasma ([2]; po, 30 mg/kg): 3-4 fold
terminal half-life in plasma ([2]; po, 30 mg/kg): approximately 1 h
terminal half-life in sciatic nerve ([2]; po, 30 mg/kg): approximately 4.7 h
Allodynia ([3]; Compound A dose 3): +
Body Weight ([3]; Compound A dose 3): +/−
DRG/nerve pathology ([3]; Compound A dose 3): −
IENFD ([3]; Compound A dose 3): +
NCS ([3]; Compound A dose 3): −
Allodynia ([3]; Compound A dose 10): +
Body Weight ([3]; Compound A dose 10): +/−
DRG/nerve pathology ([3]; Compound A dose 10): +/−
IENFD ([3]; Compound A dose 10): +
NCS ([3]; Compound A dose 10): −
Allodynia ([3]; Compound A dose 30): +
Body Weight ([3]; Compound A dose 30): +/−
DRG/nerve pathology ([3]; Compound A dose 30): +/−
IENFD ([3]; Compound A dose 30): +
NCS ([3]; Compound A dose 30): +/−
mild axonal changes in the sciatic nerve ([3]; different doses): did not alter these changes
DRG sensory neuron degeneration and satellite cell vacuolization ([3]; preventive setting): incomplete protection
digital NCV vs CTRL ([3]; preventive setting, Compound A 30 mg/kg): no alteration
digital NCV vs CTRL ([3]; preventive setting, Compound A 3 and 10 mg/kg): statistically significant reduction
bortezomib-induced reduction in IENFD ([3]; preventive setting, all doses): significantly prevented
allodynia vs CTRL (mechanical threshold) ([3]; preventive setting, all doses, end of treatment): did not show allodynia
caudal NCV and caudal potential amplitude vs CTRL ([3]; preventive setting, all doses, monohydrochloride salt): statistically significant reduction
digital potential amplitude vs CTRL ([3]; preventive setting, all groups, end of treatment): No changes
caudal nerve pathological changes ([3]; preventive setting, different doses): mild, not dose-dependent reduction in these pathological changes
body weight difference vs. CTRL and bortezomib groups ([3]; preventive study, at the end of treatment): not significant
body weight vs. CTRL and bortezomib groups ([3]; preventive study, different doses, first few weeks until day 21): significant increase in body weight
time after dosing at which pre-dose heart rate levels were reached again ([4]; 0.1 to 10 mg single oral dose): 6 h
pulse rate ([4]; groups treated with Compound A): decrease
maximal decrease of mean heart rate (Holter-ECG) ([4]; single oral dose 0.1 mg): 5.1 bpm
maximal decrease of mean heart rate (Holter-ECG) ([4]; single oral dose 0.3 mg): 6.8 bpm
maximal decrease of mean heart rate (Holter-ECG) ([4]; single oral dose 1.0 mg): 15.9 bpm
maximal decrease of mean heart rate (Holter-ECG) ([4]; single oral dose 10 mg): 18.3 bpm
F [5]: 70.6%
2 hr brain concentration ([5]; iv): 172. ng · g
2 hr plasma concentration ([5]; iv): 119.3 ng/mL
AUC (0-t) ([5]; iv, 3 mg/kg): 701.5 ng·h/mL
Cmax ([5]; iv, 3 mg/kg): 468.4 ng/mL
T1/2 z ([5]; iv, 3 mg/kg): 1.6 h
Vz/F ([5]; iv, 3 mg/kg): 9.9 L/kg
AUC (0-t) ([5]; po, 3 mg/kg): 495.3 ng·h/mL
Cmax ([5]; po, 3 mg/kg): 58.6 ng/mL
T1/2 z ([5]; po, 3 mg/kg): 12.7 h
Vz/F ([5]; po, 3 mg/kg): 38.6 L/kg
tmax ([5]; po, 3 mg/kg): 3.3 h
F [6]: 31.2%
T1/2 z ([6]; iv, 1 mg/kg): 1.6 h
Vz/F ([6]; iv, 1 mg/kg): 3.7 L/kg
T1/2 z ([6]; po, 2 mg/kg): 1.6 h
Vz/F ([6]; po, 2 mg/kg): 13.0 L/kg
Allodynia ([7]; Compound A dose 3): +
Body Weight ([7]; Compound A dose 3): +/−
DRG/nerve pathology ([7]; Compound A dose 3): −
IENFD ([7]; Compound A dose 3): −
NCS ([7]; Compound A dose 3): +/−
Allodynia ([7]; Compound A dose 10): +
Body Weight ([7]; Compound A dose 10): +/−
DRG/nerve pathology ([7]; Compound A dose 10): +/−
IENFD ([7]; Compound A dose 10): −
NCS ([7]; Compound A dose 10): +/−
Allodynia ([7]; Compound A dose 30): +
Body Weight ([7]; Compound A dose 30): +/−
DRG/nerve pathology ([7]; Compound A dose 30): +/−
IENFD ([7]; Compound A dose 30): −
NCS ([7]; Compound A dose 30): −
protective effects on DRG/nerve pathology ([7]; therapeutic setting): not present
allodynia vs CTRL (mechanical threshold) ([7]; therapeutic setting, after 5 weeks and at the end of treatment, all doses): protected
caudal NCV and potential amplitude vs CTRL [7, 8]: statistically significant reduction
digital NCV vs CTRL [7, 8]: statistically significant reduction only the animals treated with bortezomib alone; also recorded: Only the animals treated with bortezomib alone showed a significant reduction
body weight vs. CTRL and bortezomib groups ([7]; therapeutic setting, end of treatment, Compound A 30): significant increase in body weight
body weight vs. CTRL and bortezomib groups ([7]; therapeutic setting, following 10 days co-treatment): significant increase of body weight
digital potential amplitude vs CTRL ([7]; therapeutic setting, highest dose of Compound A): reduction in potential amplitude
